The NIST ThermoML archive (doi:10.1021/je500116z)
± gives the expanded uncertainty stated by the source.

Conditions: Liquid, Ebulliometric method (Recirculating still)

SMILES | vapor or sublimation pressure (288.15 K) [kPa] | vapor or sublimation pressure (298.15 K) [kPa] | vapor or sublimation pressure (308.15 K) [kPa]
CCC(C)Cl (configuration not stated) [2-chlorobutane] | 13.36 ± 0.099 | 20.91 ± 0.13 | 31.55 ± 0.18
CCCCCC [hexane] | 12.89 ± 0.097 | 20.22 ± 0.13 | 30.7 ± 0.17
CC(C)(C)Cl [2-chloro-2-methylpropane] | 26.42 ± 0.16 | 40.13 ± 0.22 | 59.52 ± 0.3
CC(C)CCl [1-chloro-2-methylpropane] | 13 ± 0.097 | 20.35 ± 0.13 | 30.45 ± 0.17
